How the values were obtained:
As #41 = assay: RIA (Assay 2): competition with iodinated inhibin for As #41; format: binding, sheep; settings: for As#41 ED50: biotinylated peptides, 50% fall in binding of iodinated inhibin
Text: (§1) This assay was used to determine which peptides compete with iodinated 30 kDa inhibin for As #41, #128 and #1989 (used in the original inhibin RIA, Lapphorn et al., 1989, supra) in a RIA format. This assay identifies those peptides that bind to inhibin-binding antibodies in the antiserum and provides a stricter affinity and specificity assessment in identifying the appropriate epitopes than that found with Assay 1. The competition between peptide and hr-inhibin (used as the standard) was assessed from their ED50 values. The RIA consisted of the competition of iodinated inhibin and either hr-inhibin reference preparation, individual peptides or pools from the 4 peptide regions, with As #41, #128 and in some instances, As #1989. The peptides/inhibin/iodinated inhibin and antisera (at a prescribed dilution) were incubated overnight at 4° C. using standard methodologies. The antibody-bound iodinated inhibin was immunoprecipitated with the addition of an anti-sheep IgG serum raised in goats and the radioactivity was measured in a gamma counter. The concentration of peptide that gives a 50% fall in binding of iodinated inhibin (ED50) was determined and this value was used to give a measure of the affinity of the peptide for the antiserum. This methodology consisted of determining the ED50 of the peptide in the RIA using iodinated human recombinant inhibin as tracer with either As #41, As #128 or As #1989 and graded doses of either hr-inhibin or peptide as described in Example 2.

As #1989 = assay: RIA (Assay 2): competition with iodinated inhibin for As #1989; format: binding, rabbit; settings: for As#1989 ED50: biotinylated peptides, 50% fall in binding of iodinated inhibin
Text: as §1

As #128 = assay: RIA (Assay 2): competition with iodinated inhibin for As #128; format: binding, sheep; settings: for As#128 ED50: biotinylated peptides, 50% fall in binding of iodinated inhibin
Text: as §1

[1] = non-biotinylated peptides, hr-inhibin A as standard

Row | Substance | ED50 values As#41 (As #41; [1]) [µM] | ED50 values As#1989 (As #1989; [1]) [µM] | ED50 values As#128 (As #128; [1]) [µM] | As#41 ED50 (As #41) [µM] | As#1989 ED50 (As #1989) [µM] | As#128 ED50 (As #128) [µM]
1 | Hr-inhibin: human recombinant 30 kDa inhibin A [reference compound] | 0.002 to 8 | 0.0001 | 0.002 |  |  | 
2 | SGSG VALNISFQELGWER [Peptide 11] |  |  |  | >10 | >2.5 | >10
3 | SGSG PEEPAAHANCHRVA [Peptide 8] |  |  |  | >10 | >2.5 | 4.8
4 | SGSG LPVPGAPPTPAQPY [Peptide 21] |  |  |  | 1 | >2.5 | 0.156
5 | SGSG ERWIVYPPSFIFHY [Peptide 14] |  |  |  | >10 | >2.5 | >10
6 | SGSG SFKYETVPNLLTQH [Peptide 32] |  |  |  | 0.29 | >2.5 | 2.5
7 | SGSG SFIFHYCHGGCGLH [Peptide 16] |  |  |  | >10 | >2.5 | >10
8 | SGSG HYCHGGCGLHIPPN [Peptide 17] |  |  |  | 1.05 | >2.5 | 10
9 | SGSG AAHANCHRVALNIS [Peptide 9] |  |  |  | >10 | >2.5 | >10
10 | SGSG PLHVRTTSDGGYSF [Peptide 29] |  |  |  | 5 | >2.5 | 0.156
11 | SGSG VYPPSFIFHYCHGG [Peptide 15] |  |  |  | >10 | >2.5 | >10
12 | SGSG ISFQELGWERWIVY [Peptide 12] |  |  |  | >10 | >2.5 | >10
13 | SGSG NCHRVALNISFQEL [Peptide 10] |  |  |  | >10 | >2.5 | >10
14 | SGSG ELGWERWIVYPPSF [Peptide 13] |  |  |  | >10 | >2.5 | >10

From patent publication US7511123B2, “Immuno-interactive fragments of the alpha-C subunit of inhibin” (Prince Henry's Institute of Medical Research, priority 1999, dated 2009)
